Values after ≈ are worked out from the molar mass of the structure shown.
Experiments:
Escherichia coli = assay: Antibacterial activity against Escherichia coli ATCC 25922 after 24 hrs by broth microdilution method; format: functional; conditions: ATCC 25922, 24 h
Acinetobacter baumannii = assay: Antibacterial activity against Acinetobacter baumannii LMG 1025 after 24 hrs by broth microdilution method; format: functional; conditions: LMG 1025, 24 h
[1] = Antioxidant activity assessed as DPPH radical scavenging activity at 30 uM after 20 mins by spectrophotometric method relative to control; format: functional
NHDF [2] = assay: Antiproliferative activity against NHDF at 30 uM after 72 hrs by MTT assay relative to control; format: cell-based; conditions: human
MCF7 [3] = assay: Antiproliferative activity against human MCF7 cells at 30 uM after 72 hrs by MTT assay relative to control; format: functional
[4] = Antioxidant activity assessed as DPPH radical scavenging activity after 20 mins by spectrophotometric method; format: functional
Bacillus cereus = assay: Antibacterial activity against Bacillus cereus ATCC 1178 after 24 hrs by broth microdilution method; format: functional; conditions: ATCC 1178, 24 h
Salmonella typhimurium = assay: Antibacterial activity against Salmonella typhimurium ATCC 13311 after 24 hrs by broth microdilution method; format: functional, Salmonella enterica subsp. enterica serovar Typhimurium; conditions: Salmonella enterica, ATCC 13311, 24 h
Klebsiella pneumoniae = assay: Antibacterial activity against Klebsiella pneumoniae ATCC 13883 after 24 hrs by broth microdilution method; format: functional; conditions: ATCC 13883, 24 h
[5] = Antioxidant activity assessed as DPPH radical scavenging activity after 60 mins by spectrophotometric method; format: functional
Staphylococcus aureus = assay: Antibacterial activity against Staphylococcus aureus ATCC 25923 after 24 hrs by broth microdilution method; format: functional; conditions: ATCC 25923, 24 h
Pseudomonas aeruginosa = assay: Antibacterial activity against Pseudomonas aeruginosa ATCC 27853 after 24 hrs by broth microdilution method; format: functional; conditions: ATCC 27853, 24 h
[6] = Antioxidant activity assessed as DPPH radical scavenging activity at 30 uM after 60 mins by spectrophotometric method relative to control; format: functional
MCF7 [7] = assay: cells; conditions: Homo sapiens, MCF7, 72 h
NHDF [8] = assay: Antiproliferative activity against NHDF after 72 hrs by MTT assay; format: cell-based; conditions: Homo sapiens

## CC(NNc1ccccc1)=C1C(=O)NC(=O)NC1=O
Escherichia coli
  MIC: > 200 µM
Acinetobacter baumannii
  MIC: 25 µM (≈ 6.51 µg/mL)
[1]
  Activity: 77.1%
NHDF [2]
  Activity: 74.87%
MCF7 [3]
  Activity: 40.24%
[4]
  IC50: 23.9 µM
Bacillus cereus
  MIC: > 200 µM
Salmonella typhimurium
  MIC: > 200 µM
Klebsiella pneumoniae
  MIC: > 200 µM
[5]
  IC50: 20.4 µM
Staphylococcus aureus
  MIC: > 200 µM
Pseudomonas aeruginosa
  MIC: > 200 µM
[6]
  Activity: 78.1%

## CC(NNc1ccc([N+](=O)[O-])cc1)=C1C(=O)N(C)C(=O)N(C)C1=O
Escherichia coli
  MIC: > 200 µM
Acinetobacter baumannii
  MIC: 12.5 µM (≈ 4.17 µg/mL)
[1]
  Activity: 71.2%
NHDF [2]
  Activity: 77.63%
MCF7 [3]
  Activity: 76.99%
[4]
  IC50: 23.9 µM
Bacillus cereus
  MIC: > 200 µM
Salmonella typhimurium
  MIC: > 200 µM
Klebsiella pneumoniae
  MIC: > 200 µM
[5]
  IC50: 23.8 µM
Staphylococcus aureus
  MIC: > 200 µM
Pseudomonas aeruginosa
  MIC: > 200 µM
[6]
  Activity: 76%

## O=C1NC(=S)NC(=O)C1=CNc1ccc([N+](=O)[O-])cc1Cl
Escherichia coli
  MIC: > 200 µM
MCF7 [7]
  IC50: 13.2 µM
Acinetobacter baumannii
  MIC: > 200 µM
[1]
  Activity: 0.91%
NHDF [2]
  Activity: 76.01%
MCF7 [3]
  Activity: 32.43%
Bacillus cereus
  MIC: > 200 µM
Salmonella typhimurium
  MIC: > 200 µM
Klebsiella pneumoniae
  MIC: > 200 µM
Staphylococcus aureus
  MIC: > 200 µM
Pseudomonas aeruginosa
  MIC: > 200 µM
[6]
  Activity: 0.5%

## Cc1c(C)c2c(c(C)c1O)CCC(C)(C(=O)O)O2 (stereo not given) [TROLOX]
[1]
  Activity: 70%
[4]
  IC50: 33.8 µM
[5]
  IC50: 35.9 µM
[6]
  Activity: 70.3%

## O=c1[nH]cc(F)c(=O)[nH]1 [FLUOROURACIL]
MCF7 [7]
  IC50: 2.35 µM
NHDF [2]
  Activity: 58.31%
MCF7 [3]
  Activity: 11.88%
NHDF [8]
  IC50: 7.38 µM

## NC(=S)NC=C1C(=O)N(c2ccccc2)C(=S)N(c2ccccc2)C1=O
Escherichia coli
  MIC: > 200 µM
Acinetobacter baumannii
  MIC: > 200 µM
[1]
  Activity: 23.1%
NHDF [2]
  Activity: 95.17%
MCF7 [3]
  Activity: 90.04%
Bacillus cereus
  MIC: > 200 µM
Salmonella typhimurium
  MIC: > 200 µM
Klebsiella pneumoniae
  MIC: > 200 µM
Staphylococcus aureus
  MIC: > 200 µM
Pseudomonas aeruginosa
  MIC: > 200 µM
[6]
  Activity: 32%

## CN1C(=O)C(=CNc2cc([N+](=O)[O-])ccc2Cl)C(=O)N(C)C1=O
Escherichia coli
  MIC: > 200 µM
Acinetobacter baumannii
  MIC: > 200 µM
[1]
  Activity: -0.82%
NHDF [2]
  Activity: 66.98%
MCF7 [3]
  Activity: 50.07%
Bacillus cereus
  MIC: > 200 µM
Salmonella typhimurium
  MIC: > 200 µM
Klebsiella pneumoniae
  MIC: > 200 µM
Staphylococcus aureus
  MIC: > 200 µM
Pseudomonas aeruginosa
  MIC: > 200 µM
[6]
  Activity: 0%

## CC(NN)=C1C(=O)NC(=O)NC1=O
Escherichia coli
  MIC: > 200 µM
Acinetobacter baumannii
  MIC: > 200 µM
[1]
  Activity: 11.6%
NHDF [2]
  Activity: 82.68%
MCF7 [3]
  Activity: 98.27%
Bacillus cereus
  MIC: > 200 µM
Salmonella typhimurium
  MIC: > 200 µM
Klebsiella pneumoniae
  MIC: > 200 µM
Staphylococcus aureus
  MIC: > 200 µM
Pseudomonas aeruginosa
  MIC: > 200 µM
[6]
  Activity: 25.4%

## COc1ccc(CC2C(=O)NC(=O)NC2=O)cc1
Escherichia coli
  MIC: > 200 µM
Acinetobacter baumannii
  MIC: > 200 µM
[1]
  Activity: 10.4%
NHDF [2]
  Activity: 60.77%
MCF7 [3]
  Activity: 73.12%
Bacillus cereus
  MIC: > 200 µM
Salmonella typhimurium
  MIC: > 200 µM
Klebsiella pneumoniae
  MIC: > 200 µM
Staphylococcus aureus
  MIC: > 200 µM
Pseudomonas aeruginosa
  MIC: > 200 µM
[6]
  Activity: 14%

## CC(NNc1ccccc1)=C1C(=O)N(C)C(=O)N(C)C1=O
Escherichia coli
  MIC: > 200 µM
Acinetobacter baumannii
  MIC: 25 µM (≈ 7.21 µg/mL)
[1]
  Activity: 77.1%
NHDF [2]
  Activity: 65.56%
MCF7 [3]
  Activity: 57.38%
[4]
  IC50: 22.6 µM
Bacillus cereus
  MIC: > 200 µM
Salmonella typhimurium
  MIC: > 200 µM
Klebsiella pneumoniae
  MIC: > 200 µM
NHDF [8]
  IC50: 82 µM
[5]
  IC50: 18.8 µM
Staphylococcus aureus
  MIC: > 200 µM
Pseudomonas aeruginosa
  MIC: > 200 µM
[6]
  Activity: 76.7%

## O=C1NC(=S)NC(=O)C1=CNc1ccccc1C(=O)O
Escherichia coli
  MIC: > 200 µM
Acinetobacter baumannii
  MIC: > 200 µM
[1]
  Activity: -0.56%
NHDF [2]
  Activity: 79.11%
MCF7 [3]
  Activity: 42.53%
Bacillus cereus
  MIC: > 200 µM
Salmonella typhimurium
  MIC: > 200 µM
Klebsiella pneumoniae
  MIC: > 200 µM
Staphylococcus aureus
  MIC: > 200 µM
Pseudomonas aeruginosa
  MIC: > 200 µM
[6]
  Activity: -0.57%
